Laboratory results reported in BindingDB's records for doi:10.1021/cb400075f (Boehringer Ingelheim (Canada), 2013).

Key:
Gag-Pol polyprotein [1] = biological target: T1, Gag-Pol polyprotein (Human immunodeficiency virus type 1 group M subtype B (isolate NY5), UniProt P12497); experiment: Capsid Assembly Assay
Text: In vitro capsid assembly assay (CAA) was used in a HTS to identify potential inhibitors of capsid assembly.

Gag-Pol polyprotein [2] = biological target: T1, Gag-Pol polyprotein; experiment: Capsid Assembly Assay; remark: listed apart in the source

O=C(O)c1ccc(-c2ccc3c(c2)nc(-c2c[nH]nc2-c2ccc(C(F)(F)F)cc2)n3CCCN2CCCCC2)cc1 [Benzimidazole Inhibitor, 5]
IC50 (Gag-Pol polyprotein [1]): 670 nM

O=C(O)c1ccc(-c2ccc3c(c2)nc(-c2c[nH]nc2-c2cccc(Cl)c2)n3CCCn2ccnc2)cc1 [Benzimidazole Inhibitor, 4]
IC50 (Gag-Pol polyprotein [1]): 1200 nM

CN(C)CCCn1c(-c2c[nH]nc2-c2ccccc2)nc2cc(-c3ccc(C(=O)O)cc3)ccc21 [Benzimidazole Inhibitor, 1]
IC50 (Gag-Pol polyprotein [1]): 6100 nM | Kd (Gag-Pol polyprotein [2]): 43000 nM

O=C(O)c1ccc(-c2ccc3c(c2)nc(-c2c[nH]nc2-c2ccc(Cl)c(Cl)c2)n3CCCNC2CCCCC2)cc1 [Benzimidazole Inhibitor, 6]
IC50 (Gag-Pol polyprotein [1]): 350 nM | Kd (Gag-Pol polyprotein [2]): 500 nM

O=C(O)c1ccc(-c2ccc3c(c2)nc(-c2c[nH]nc2-c2ccc(C(F)(F)F)cc2)n3CCCn2ccnc2)cc1 [Benzimidazole Inhibitor, 3]
IC50 (Gag-Pol polyprotein [1]): 1400 nM | Kd (Gag-Pol polyprotein [2]): 8000 nM

CN(C)CCCn1c(-c2c[nH]nc2-c2ccc(C(F)(F)F)cc2)nc2cc(-c3ccc(C(=O)O)cc3)ccc21 [Benzimidazole Inhibitor, 2]
IC50 (Gag-Pol polyprotein [1]): 1200 nM | Kd (Gag-Pol polyprotein [2]): 4300 nM

COCCN=CC1C(=O)N(C)c2ccc(C(F)(F)F)cc2N(c2ccccc2)C1=O (stereo unspecified) [Benzodiazepine Inhibitor, 7]
IC50 (Gag-Pol polyprotein [1]): 890 nM
